# Laboratory results: article PMC8401042, “Non-Toxic Dimeric Peptides Derived from the Bothropstoxin-I Are Potent SARS-CoV-2 and Papain-like Protease Inhibitors” (Molecules, 2021)
# Bridge positions count the residues as written; N and C are the ends. Ends that are not written are not given here. I, II: the chains in the order shown.
# Columns and labels:
# SARS-CoV-2 PLpro [1] = target: T1, SARS-CoV-2 PLpro (Severe acute respiratory syndrome coronavirus 2, UniProt P0DTD1); experiment: Microscale thermophoresis (MST) binding assay; details: 100 nM labelled PLpro, peptides 0.015 to 500 µM, 50 mM HEPES pH 7.5, 100 mM NaCl, 2 mM DTT, DMSO 5%; triplicate, Hill fit
# SARS-CoV-2 = details: 24 h, 100 µM
# SARS-CoV-2 PLpro [2] = target: T1, SARS-CoV-2 PLpro; experiment: SARS-CoV-2 PLpro FRET enzyme inhibition assay; assay type: biochemical
# [3] = target: SARS-CoV-2 Papain-like protease (PL^pro) (SARS-CoV-2) (UniProt P0DTD1)
# [4] = target: SARS-CoV-2 Papain-like protease (PL^pro) (SARS-CoV-2) (UniProt P0DTD1); remark: listed apart in the source
Molecule,Kd (SARS-CoV-2 PLpro [1]),SARS-CoV-2 % of inhibition at 100 µM (SARS-CoV-2),"inhibition at 10 µM (SARS-CoV-2 PLpro [2]; 10 µM peptide, 70 nM enzyme, 27 µM substrate, 37 °C, […])","IC50 (SARS-CoV-2 PLpro [2]; calculated from IC50 values, Figure 3A, read-out: pIC50 (−logIC50), PLpro (converted))",percent inhibition of PL^pro activity at 10 µM peptide [3],IC50 of inhibition of PL^pro activity (cleavage of a FRET peptide substrate) [4]
"I: KKYRYHLKPFKK-NH2 / II: KKYRYHLKPFK / III: KKYRYHLKPF / IV: KKYRYHLKPF (amide I:11-IV:C, I:12-II:C, II:11-III:C) [A11]",1000 ± 200 nM,54%,98%,1410 nM,,
IFGAILPLALGALKNLIK-NH2 [Hylin a1],,,,,13%,> 10000 nM
